Measured values taken from PubChem BioAssay (NCI).
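A five-concentration, 48-hour dose response in 96-well plates underlies each endpoint, interpolated linearly between surrounding concentrations. The concentration for 50% growth inhibition is given as GI50. Definition used: TGI = concentration required for complete inhibition of growth.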

Experiments:
Test in all cases: growth of human tumour cells (NCI), 48 h
SK-MEL-28 melanoma = tested on: SK-MEL-28 melanoma
SN12C renal = tested on: SN12C renal
NCI-H460 lung = tested on: NCI-H460 lung
K-562 leukemia = tested on: K-562 leukemia
ACHN renal = tested on: ACHN renal
IGROV1 ovarian = tested on: IGROV1 ovarian
OVCAR-3 ovarian = tested on: OVCAR-3 ovarian
SK-MEL-2 melanoma = tested on: SK-MEL-2 melanoma
SF-268 CNS = tested on: SF-268 CNS
MCF7 breast = tested on: MCF7 breast

Row | SMILES | TGI (SK-MEL-28 melanoma) | TGI (SN12C renal) | TGI (NCI-H460 lung) | TGI (K-562 leukemia) | TGI (ACHN renal) | TGI (IGROV1 ovarian) | TGI (OVCAR-3 ovarian) | TGI (SK-MEL-2 melanoma) | TGI (SF-268 CNS) | TGI (MCF7 breast) | GI50 (SK-MEL-28 melanoma) | GI50 (SN12C renal) | GI50 (NCI-H460 lung) | GI50 (K-562 leukemia) | GI50 (ACHN renal) | GI50 (IGROV1 ovarian) | GI50 (OVCAR-3 ovarian) | GI50 (SK-MEL-2 melanoma) | GI50 (MCF7 breast) | GI50 (SF-268 CNS)
1 | Cc1ncc(COP(=O)(O)O)c(C)c1O | > 100 µM | > 100 µM | > 100 µM | > 100 µM | > 100 µM | > 100 µM | > 100 µM | > 100 µM | > 100 µM |  |  |  |  |  |  |  |  |  |  | 
2 | N=C(N)SCCN1CCCCC1 | 88.8 µM | 73.4 µM | > 100 µM | 62.1 µM | > 100 µM | > 100 µM | 43.9 µM | 17 µM | > 100 µM | 34.3 µM |  |  |  |  |  |  |  |  |  | 
3 | O=C1O/C(=C\C=C\CO)C=C1/C=C/CO | 49.7 µM | 80.4 µM | > 100 µM | > 100 µM | 69.5 µM | 38.6 µM | 48.8 µM | 43.4 µM | 58.2 µM | > 100 µM |  |  |  |  |  |  |  |  |  | 
4 | NC(=S)N/N=C1\CC(c2ccccc2)Nc2ccccc21 (stereo not drawn) | > 100 µM | > 100 µM | > 100 µM | > 100 µM | > 100 µM | > 100 µM | > 100 µM |  | > 100 µM |  |  |  |  |  |  |  |  |  |  | 
5 | Cc1ccccc1C1CC(=O)CC(c2ccccc2C)C12C(=O)NC(=S)NC2=O (stereo not drawn) | 44.5 µM | 67 µM | 41.8 µM | > 100 µM | 38.6 µM |  | 82.8 µM | 40.3 µM | > 100 µM | > 100 µM |  |  |  |  |  |  |  |  |  | 
6 | CC(=O)C(N=NC1CCC(S(=O)(=O)NB2N=CS2)CC1)C(=O)Nc1ccccc1C (stereo not drawn) | 30.8 µM | 34.7 µM | 33.9 µM | > 100 µM | 24.6 µM | 35.2 µM | 27 µM | 33.3 µM | 30.8 µM |  |  |  |  |  |  |  |  |  |  | 
7 | CCCCCCCCc1ccc(CCC(N)(CO)CO)cc1 | 3.2 µM | 13.9 µM | 3.53 µM | 4.33 µM | 2.97 µM | 3.9 µM | 3.48 µM | 3.76 µM |  | 3.07 µM | 1.8 µM | 3.5 µM | 1.76 µM | 1.82 µM | 1.61 µM | 1.89 µM | 1.94 µM | 2.06 µM | 1.67 µM | 
8 | CC1(Cc2cc3c(cc2C2(c4ccc([N+](=O)[O-])cc4)OCCO2)OCO3)OCCO1 | > 100 µM | > 100 µM | > 100 µM | > 100 µM | > 100 µM | > 100 µM | > 100 µM | > 100 µM | > 100 µM | > 100 µM |  |  |  |  |  |  |  |  |  | 
9 | COc1cc(O)c2c(=O)c(OC)c(-c3ccc(OC)c(OC)c3)oc2c1.[Zn+2] | > 100 µM | > 100 µM | > 100 µM | > 100 µM | > 100 µM | > 100 µM | 35.7 µM |  | > 100 µM | > 100 µM | > 100 µM |  |  | 41.6 µM | 35.4 µM | 29.8 µM | 14.1 µM |  | 92.3 µM | 12.9 µM
10 | O=S(=O)([O-])[O-].[Fe+2].[OH2+]c1c(Cl)cc(Cl)cc1/C=N/Nc1ccccn1 | 3.32 µM | 2.82 µM | 4.42 µM | 3.26 µM | 1.12 µM | 3.13 µM | 0.578 µM |  | 1.94 µM |  |  |  |  |  |  |  |  |  |  | 
11 | Cc1cccc(/C=C2/C(=O)Nc3ccccc32)n1 | > 100 µM | 37.9 µM | > 81.2 µM | 40.4 µM | > 82.1 µM | > 100 µM | 39.3 µM | 36.4 µM | 42.5 µM | 30.3 µM |  |  |  |  |  | 24.4 µM |  |  |  | 
12 | C[N+]1(C)C/C(=C\c2ccc(O)cc2)C(=O)/C(=C/c2ccc(O)cc2)C1 | > 100 µM | > 100 µM | > 100 µM |  | > 100 µM | > 100 µM | > 100 µM |  | > 100 µM |  |  |  |  |  |  |  |  |  |  | 
13 | CCOc1ccc(N=Nc2ccc(-c3ccc(N=Nc4c(O)ccc5cc(S(=O)(=O)O)cc(S(=O)(=O)O)c45)cc3)cc2)cc1 | > 100 µM |  | > 100 µM | > 100 µM | > 100 µM | > 100 µM | > 100 µM | > 100 µM | > 100 µM | > 100 µM |  |  |  |  |  |  |  |  |  | 
14 | CC(=O)Oc1cc(/C=C/c2ccc(O)cc2)cc(OC(C)=O)c1 | > 100 µM | 68.5 µM | > 100 µM | > 100 µM | > 100 µM | > 100 µM | > 100 µM | > 100 µM | > 100 µM | > 100 µM |  |  |  |  |  |  |  |  |  | 
15 | COc1ccc(OC)c([N+](=O)[O-])c1-c1nc2sc(C)c(C)n2c1/C=N/N=C(N)N | > 100 µM | > 100 µM | > 100 µM | > 100 µM | > 100 µM | > 100 µM | > 100 µM | 40.5 µM | > 100 µM | 79.5 µM |  |  |  |  |  |  |  |  |  | 
16 | O=C(/C=C/c1ccc(O)cc1)c1cc(-c2cc(CCC(=O)c3ccc(O)cc3O)ccc2O)c(O)cc1O | > 50 µM | > 50 µM | > 50 µM | 48.4 µM | > 50 µM | > 50 µM | > 50 µM | > 50 µM | > 50 µM | > 50 µM |  |  |  |  |  |  |  |  |  | 
17 | CC(=O)c1c(C)cc2cccc(OC3OC(CO)C(O)C(O)C3O)c2c1O (stereo not drawn) (tested in a mixture with another compound) | > 100 µM | > 100 µM | > 100 µM | > 100 µM | > 100 µM | > 100 µM | > 100 µM | > 100 µM | > 100 µM | > 100 µM |  |  |  |  |  |  |  |  |  | 
18 | CC(=O)[C@]12OC(=O)C3=C1[C@H](CC[C@@H]3C)[C@@H](C)C[C@H]2C=C(C)C |  | 15.8 µM | 17.3 µM | 13.2 µM | 15.3 µM | 14.2 µM | 14 µM | 14.7 µM | 15.8 µM | 17.2 µM |  |  |  |  |  |  |  |  |  | 
